From US9134309B2, “Polypeptide display libraries and methods of making and using thereof” (The Regents of the University of California, priority 2003, dated 2015)

Target: T1, streptavidin (Streptomyces avidinii, UniProt P22629)
T1 construct: purchased Molecular Probes (Eugene, Oreg.)
Assay: dissociation of SA-1 peptide grafted into YFP from streptavidin coated beads, flow cytometry
Type: binding
Conditions: SA-1 inserted into YFP after Y145, soluble fusion protein, 1 μM biotin
Protocol: See Baird, G. S. et al. (1999) PNAS USA 96(20):11241-11246, which is herein incorporated by reference. […] See Bessette, P. H., et al. (1999) PNAS USA 96(24):13703-13708, which is herein incorporated by reference. […] Using flow cytometry, the dissociation rate constant of the steptavidin binding fluorescent protein was determined to be 0.02 s^−1.
The soluble protein was isolated using B-PER II bacterial protein extraction reagent (Pierce Biotechnology, Rockford, Ill.) following the manufacturer's protocol. About 10^7 streptavidin coated magnetic beads (Dynal Inc., Brown Deer, Wis.) were added to 40 μl of cell lysate and equilibrated at room temperature for 20 minutes. The beads were washed once in 2 ml of PBS; biotin was added to a final concentration of 1 μM, and immediately analyzed by flow cytometry as above. Lysate from a strain expressing YFP with a T7•tag insertion at the same location was used as a negative control.

T1 sequence (P22629 25-183): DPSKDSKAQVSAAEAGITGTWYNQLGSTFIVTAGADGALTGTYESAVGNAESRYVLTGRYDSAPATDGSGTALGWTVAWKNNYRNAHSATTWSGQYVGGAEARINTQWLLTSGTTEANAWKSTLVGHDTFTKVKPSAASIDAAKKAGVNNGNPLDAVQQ

RLEICQNVCYYLGTL [SA-1]
dissociation rate constant: 0.02 s⁻¹
